# Data reported in publication PMC5823845 (Bioorganic & Medicinal Chemistry, 2018).
# Where two headings read alike, the source gives them in different places.
# Assays:
# mouse RAR beta receptor = biological target: T1, mouse RAR beta receptor (Mus musculus, UniProt P22605); settings: ratio of relative EC50s RARβ/RARα
# T1 sequence (P22605 210-444 limits assumed): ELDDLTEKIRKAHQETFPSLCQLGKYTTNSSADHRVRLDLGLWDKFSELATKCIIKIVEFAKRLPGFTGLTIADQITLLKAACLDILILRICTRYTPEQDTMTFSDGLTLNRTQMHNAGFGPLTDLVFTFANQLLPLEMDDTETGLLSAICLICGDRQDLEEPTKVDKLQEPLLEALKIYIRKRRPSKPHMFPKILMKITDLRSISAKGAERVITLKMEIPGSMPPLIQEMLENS
# mouse RAR alpha receptor = biological target: T2, mouse RAR alpha receptor (Mus musculus, UniProt P11416); settings: relative to the amplitude of the normalizing ATRA output
# T2 sequence (P11416 183-417 limits assumed): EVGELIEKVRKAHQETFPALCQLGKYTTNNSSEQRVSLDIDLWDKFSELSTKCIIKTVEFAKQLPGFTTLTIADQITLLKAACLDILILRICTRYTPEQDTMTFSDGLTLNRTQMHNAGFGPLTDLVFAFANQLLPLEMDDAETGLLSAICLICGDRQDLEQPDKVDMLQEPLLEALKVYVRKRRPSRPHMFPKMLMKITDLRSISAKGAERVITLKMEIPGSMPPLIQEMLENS
# mouse RAR gamma receptor = biological target: T3, mouse RAR gamma receptor (Mus musculus, UniProt P18911)
# T3 sequence (P18911 185-419 limits assumed): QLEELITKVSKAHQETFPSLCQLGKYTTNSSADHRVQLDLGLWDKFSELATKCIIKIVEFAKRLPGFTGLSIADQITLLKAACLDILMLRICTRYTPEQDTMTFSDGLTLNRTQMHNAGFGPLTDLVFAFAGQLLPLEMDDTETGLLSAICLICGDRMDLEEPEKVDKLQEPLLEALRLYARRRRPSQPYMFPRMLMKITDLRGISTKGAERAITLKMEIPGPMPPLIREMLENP
# [1] = Log D pH 7.4, octanol/buffer shake flask method
# Description: Briefly, octanol (pre-saturated with buffer) is added to the test compound and sonicated. Buffer at pH 7.4 (presaturated with octanol) is then added to the octanol. […] The system is mixed to allow distribution of the compound between the two phases.
# Log D = Log (Coct / Caq ). Where: Coct = Concentration in octanol sample (corrected for dilution) and Caq = Concentration in aqueous sample (corrected for dilution)
# PK studies in rats = format: in vivo, Sprague-Dawley rats; settings: for rat pK AUC po: 10 mg/kg po, 8% Ethanol/92% PEG-400, n = 4; for rat pK Cl: iv 0.5 mg/kg; for rat pK Cl / bioavailability: n = 4; for bioavailability: male, Sprague-Dawley, whole blood, rat, 10 mg/kg po vs 0.5 mg/kg iv, read-out: rat pK F%
# Description: The Test Items were orally administered at a dose of 10 mg/kg and a dosing volume of 10 mL/kg. […] The Test Items were intravenously administered at a dose of 0.5 mg/kg and a dosing volume of 2 mL/kg. […] Whole blood concentrations of the Test Items were measured using LC-MS/MS and selected pharmacokinetic parameters calculated using Pharsight WinNonLin software. For furthers details see Supplementary data file.
# [2] = Intrinsic clearance in liver microsomes; format: in vitro ADME; settings: 37 °C, NADPH, 45 min, mean of 5
# Description: The reaction is terminated by the addition of methanol. Following centrifugation, the supernatant is analyzed on the LC-MS/MS. […] The data is the mean on 5 separate experiments.
# The ln peak area ratio (compound peak area/internal standard peak area) is plotted against time and the gradient of the line determined.
# (see Supplementary data file for details).
# [3] = mouse, ratio of relative EC50s RARγ/RARα
# [4] = liver microsomes, human microsomes
# [5] = liver microsomes, mouse microsomes
SMILES,β/α ratio (mouse RAR beta receptor),γ/α ratio (mouse RAR gamma receptor; [3]),logD [1],"microsomal CLint [2, 4] [µL/min/mg]","microsomal CLint [2, 5] [µL/min/mg]",other results
CC(C)Oc1cc(C(=O)Nc2ccc(C(=O)O)cc2)cc(OC(C)C)c1OC(C)C [Compound 33],96,8,,,,RARα agonist type (partial / full agonist) (mouse RAR alpha receptor): partial agonist activity
CCOc1c(Cl)cc(C(=O)Nc2ccc(C(=O)O)c(F)c2)cc1OC(C)C [Compound 54],487,6169,1.4,3.3,17.9,"rat pK AUC po (PK studies in rats): 15,376 ng·min mL^−1; rat pK Cl (PK studies in rats): 12 mL/kg/min; bioavailability (PK studies in rats): 12%"
COc1c(Cl)cc(C(=O)Nc2ccc(C(=O)O)cc2)cc1OC(C)C [Compound 51],,,1,12,9,"rat pK AUC po (PK studies in rats): 50,940 ng·min mL^−1; rat pK Cl (PK studies in rats): 3 mL/kg/min; bioavailability (PK studies in rats): 13%; RARα agonist type (partial / full agonist) (mouse RAR alpha receptor): full agonist"
Cc1cc(NC(=O)c2cc(Cl)c(OC(C)C)c(OC(C)C)c2)ccc1C(=O)O [Compound 44],45,2947,2.3,15,26.2,"rat pK AUC po (PK studies in rats): 77,670 ng·min mL^−1; rat pK Cl (PK studies in rats): 5.4 mL/kg/min; bioavailability (PK studies in rats): 66%"
CC(C)Oc1cc(C(=O)Nc2ccc(C(=O)O)c(F)c2)cc(Cl)c1OC(C)C [Compound 43],34,300,2,6.9,18.8,
CCOc1c(OC2CCCC2)cc(C(=O)Nc2ccc(C(=O)O)cc2)cc1OC1CCCC1 [Compound 32],145,19,,,,RARα agonist type (partial / full agonist) (mouse RAR alpha receptor): partial agonist activity
"CCOc1c(Cl)cc(NC(=O)c2ccc(C(=O)O)cc2)cc1Cl [Compound 26, 4-(3,5-Dichloro-4-ethoxyphenylcarbamoyl)benzoic acid]",12,>3600,,,,
COc1c(Cl)cc(C(=O)Nc2ccc(C(=O)O)c(F)c2)cc1OC(C)C [Compound 53],609,"17,600",1,0.3,11,"rat pK AUC po (PK studies in rats): 10,871 ng·min mL^−1; rat pK Cl (PK studies in rats): 15 mL/kg/min; bioavailability (PK studies in rats): 15%"
"CCOc1c(Cl)cc(C(=O)Nc2ccc(C(=O)O)c(O)c2)cc1Cl [Compound 19, 4-(3,5-Dichloro-4-ethoxybenzamido)-2-hydroxybenzoic acid]",37,149,,,,
CCOc1cc(C(=O)Nc2ccc(C(=O)O)cc2)cc(OC(C)C)c1OCC [Compound 34],84,34,,,,RARα agonist type (partial / full agonist) (mouse RAR alpha receptor): full RARα agonist
"O=C(O)c1ccc(NC(=O)c2cc(Cl)c(OC3CCCC3)c(OC3CCCC3)c2)cc1 [Compound 42, 4-[3-Chloro-4,5-bis(cyclopentyloxy)benzamido]benzoic acid]",32,336,,,,
COc1c(Cl)cc(C(=O)Nc2ccc(C(=O)O)c(C)c2)cc1OC(C)C [Compound 55],241,509,1.3,1.5,10.6,RARα agonist type (partial / full agonist) (mouse RAR alpha receptor): partial RARα agonist activity
CCOc1c(Cl)cc(C(=O)Nc2ccc(C(=O)O)c(C)c2)cc1OC [Compound 58],210,>250,,,18.4,
O=C(O)c1ccc(NC(=O)c2cc(Cl)c(O)c(Cl)c2)cc1 [Compound 60],7,55,,,,
CCOc1c(Cl)cc(C(=O)Nc2ccc(C(=O)O)c(C(F)(F)F)c2)cc1Cl [Compound 21],1.5,11,,,,
CCOc1cc(C(=O)Nc2ccc(C(=O)O)c(C)c2)cc(Cl)c1OC(C)C [Compound 57],286,1675,1.9,8.7,25.7,
"O=C(O)c1ccc(NC(=O)c2cc(Cl)c(OC3CCCC3)c(Cl)c2)cc1 [Compound 15, 4-(3,5-Dichloro-4-(cyclopentyloxy)benzamido)benzoic acid]",,,2.8,26,83,rat pK AUC po (PK studies in rats): 1674 ng·min mL^−1; rat pK Cl (PK studies in rats): 2 mL/kg/min; bioavailability (PK studies in rats): 0.3%

SMILES,β/α ratio (mouse RAR beta receptor),γ/α ratio (mouse RAR gamma receptor; [3]),logD [1],"microsomal CLint [2, 4] [µL/min/mg]","microsomal CLint [2, 5] [µL/min/mg]",other results
CCOc1cc(C(=O)Nc2ccc(C(=O)O)cc2)cc(OCC)c1OCC [Compound 62],174,16,,,,
CCOc1c(Cl)cc(C(=O)Nc2ccc(C(=O)O)c(Cl)c2)cc1Cl [Compound 20],64,>50,,,,
CCOc1c(Cl)cc(C(=O)Nc2ccc(C(=O)O)c(C)c2)cc1OCC1CC1 [Compound 59],58,"38,461",,,42.3,
CC(C)Oc1c(Cl)cc(C(=O)Nc2ccc(C(=O)O)cc2)cc1Cl [Compound 14],205,119,,,,
O=C(O)c1ccc(NC(=O)c2cc(Cl)c(OC3CCC3)c(OC3CCC3)c2)cc1 [Compound 40],22,447,,,,
"CCOc1c(Cl)cc(C(=O)Nc2ccc(C(=O)O)c(C)c2)cc1Cl [Compound 18, 4-(3,5-Dichloro-4-ethoxybenzamido)-2-methylbenzoic acid]",,,1.7,14,38,"rat pK AUC po (PK studies in rats): 74,396 ng·min mL^−1; rat pK Cl (PK studies in rats): 1.6 mL/kg/min; bioavailability (PK studies in rats): 12%"
"CCOc1c(Cl)cc(C(=O)Nc2ccc(C(=O)O)cc2)cc1OC(C)C [Compound 49, 4-(3-Chloro-4-ethoxy-5-isopropoxybenzamido)benzoic acid]",,,1.7,11,41,RARα agonist type (partial / full agonist) (mouse RAR alpha receptor): partial agonist
CCOc1cc(C(=O)Nc2ccc(C(=O)O)cc2)cc(Cl)c1OC(C)C [Compound 52],3.1,570,,,,
CCCCOc1c(Cl)cc(C(=O)Nc2ccc(C(=O)O)cc2)cc1Cl [Compound 13],8.5,18,,,,
Cc1cc(NC(=O)c2cc(Cl)c(OC(C)(C)C)c(OC(C)(C)C)c2)ccc1C(=O)O [Compound 45],,128,2.9,,,microsomal CLint ([2]; human microsomes): 28.7 µL/min/mg; microsomal CLint ([2]; mouse microsomes): 36.2 µL/min/mg
CCOc1c(Cl)cc(C(=O)Nc2ccc(C(=O)O)c(F)c2)cc1Cl [Compound 17],80,>80,,,,
"CC(C)(C)Oc1c(Cl)cc(C(=O)Nc2ccc(C(=O)O)cc2)cc1Cl [Compound 16, 4-(4-(tert-Butoxy)-3,5-dichlorobenzamido)benzoic acid]",,,2.6,16,91,
CCCOc1c(Cl)cc(C(=O)Nc2ccc(C(=O)O)cc2)cc1Cl [Compound 12],9.5,82,,,,
COc1c(Cl)cc(C(=O)Nc2ccc(C(=O)O)cc2)cc1Cl [Compound 61],318,195,,,,
"CC1(C)CCC(C)(C)c2c1cc(C(=O)Nc1cc(F)c(C(=O)O)c(F)c1)c(O)c2Cl [Compound 4, reference compound]",141,,,,,γ/α ratio (mouse RAR gamma receptor): 867
"CC(C)(C)Oc1cc(C(=O)Nc2ccc(C(=O)O)cc2)cc(Cl)c1OC(C)(C)C [Compound 41, 4-(3,4-Di-tert-butoxy-5-chlorobenzamido)benzoic acid]",44,189,,,,
